Tests used:
stable PDAC cell lines = test: Dose-escalation IC50 determination, cell viability by CellTiterBlue; assay type: cell-based, human; details: 72 h; 3-fold serial dilutions in quadruplicates
Protocol: For calculation of the IC50, 3-fold serial dilutions of selected compounds were screened in quadruplicates, incubated for 72 h after which cell viability was assessed using CellTiterBlue as described. Raw data was normalized to positive and negative controls present on each individual plate IC50 values were calculated using GraphPad Prism (Graph Pad Software, La Jolla).
For calculation of the IC50 serial dilutions of selected compounds were screened in quadruplicates. In brief, 8,000 cells/well were seeded 24 h prior to addition of individual compounds in 96-well plates. After incubation for 72 h, cell viability was assessed using CellTiterBlue (Promega, Mannheim) as described. Raw data was normalized to positive and negative controls present on each individual plate. IC50 values were calculated using GraphPad Prism (Graph Pad Software, La Jolla).

[1] = test system: PACO tumors (transplanted human PDAC tumors); test: In vivo drug screen, subcutaneous PACO tumors in NSG mice, relative tumor volume; details: tumors of all three subtypes; 125 mg/kg i.p. twice weekly
Protocol: Three groups of mice that each carried transplanted human tumors of one either the sensitive or the resistant subtypes were treated with Dasatinib, either alone or in combination with the chemotherapeutic agent Gemcitabine.
PACO tumors were established by injecting 5×10^5 cells subcutaneously into a cohort 20 NOD.Cg-Prkdcscid Il2rgtm1Wjl (NSG) mice. After the tumors reached a size of approx. 200 mm^3, mice were randomized into two groups of each 10 mice—Control, Gemcitabine, Dasatinib or combination of both. Gemcitabine was dissolved in 0.8% buffered saline and administered twice weekly at 125 mg/kg i.p. Dasatinib was prepared in citrate/citric acid buffer (pH 3) and administered daily via oral gavage at 25 mg/kg. Tumor volume was determined twice weekly via caliper measurements and calculated according the formula (length×height×width)×(π/6). Relative tumor growth was calculated for each individual tumor in relation to the volume calculated as of the start of the experiment.
Tumor size is expressed as relative volume normalized to the day of start of treatment.

SMILES: Cc1nc(Nc2ncc(C(=O)Nc3c(C)cccc3Cl)s2)cc(N2CCN(CCO)CC2)n1 [Dasatinib]
- fold lower IC50 value of the classical subtype versus exocrine-like and quasi-mesenchymal PDAC cells (stable PDAC cell lines): > 10,000 fold

SMILES: Nc1ccn([C@@H]2O[C@H](CO)[C@@H](O)C2(F)F)c(=O)n1 [Gemcitabine]
- tumor growth, Gemcitabine alone [1]: growth-inhibitory effect on tumors of all three subtypes, however did not lead to a complete stop in tumor growth
